Patent publication US20260317324A1, “BIFUNCTIONAL COMPOUNDS FOR DEGRADING BRAF VIA UBIQUITIN PROTEOSOME PATHWAY” (Nurix Therapeutics, Inc., priority 2023, published 2026)

Key:
Format in all cases: cell-based
BRAF G469A = target: T1, BRAF G469A (Homo sapiens, UniProt P15056, G469A); assay: BRAF HiBiT degradation assay, C-terminal HiBiT-tagged BRAF G469A overexpressed in HCT-116 BRAF−/− cells (clone 34), Nano-Glo HiBiT Lytic assay; conditions: Class 2, BRAF G469A; for DC50: DC50 at 50%: fitted conc. at Y=50; for Dmax: HCT-116, percentage protein degraded at maximal compound effect relative to DMSO
T1 construct: Horizon Discovery (HCT-116 BRAF−/− cells); host or cells: HCT-116 BRAF−/− cells, clone 34, lentiviral transduction
T1 sequence (P15056 whole entry G469A): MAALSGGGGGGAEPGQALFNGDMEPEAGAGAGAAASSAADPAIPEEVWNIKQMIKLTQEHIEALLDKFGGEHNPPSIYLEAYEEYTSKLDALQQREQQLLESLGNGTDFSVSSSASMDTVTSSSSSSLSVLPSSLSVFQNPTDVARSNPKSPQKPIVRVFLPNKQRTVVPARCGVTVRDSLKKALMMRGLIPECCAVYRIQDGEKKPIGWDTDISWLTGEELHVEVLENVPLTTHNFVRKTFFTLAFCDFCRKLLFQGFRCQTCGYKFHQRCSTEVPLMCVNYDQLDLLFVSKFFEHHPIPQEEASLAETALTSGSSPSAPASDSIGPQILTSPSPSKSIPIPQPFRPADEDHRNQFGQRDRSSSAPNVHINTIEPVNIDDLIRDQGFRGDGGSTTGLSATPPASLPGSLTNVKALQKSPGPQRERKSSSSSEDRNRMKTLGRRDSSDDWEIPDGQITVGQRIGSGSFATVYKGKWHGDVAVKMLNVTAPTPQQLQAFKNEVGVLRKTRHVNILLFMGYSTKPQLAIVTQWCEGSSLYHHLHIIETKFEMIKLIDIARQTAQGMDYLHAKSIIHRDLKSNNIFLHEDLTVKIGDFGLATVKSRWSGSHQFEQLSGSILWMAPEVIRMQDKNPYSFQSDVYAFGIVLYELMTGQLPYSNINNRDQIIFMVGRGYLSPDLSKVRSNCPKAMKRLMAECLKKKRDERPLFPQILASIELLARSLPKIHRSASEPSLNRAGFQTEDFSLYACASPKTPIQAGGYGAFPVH
Summary of the method: (§1)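 HCT-116 BRAF−/− cells stably expressing the tagged mutant were seeded at 3,000 cells/well and grown 24 h at 37 °C before an 11-point half-log series from 1 μM to 0.01 nM, run in duplicate at 0.2% DMSO. Lytic HiBiT luminescence gave % protein remaining versus DMSO controls; DC50 was the fitted concentration at 50%.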

BRAF G466V = target: T2, BRAF G466V (Homo sapiens, UniProt P15056, G466V); assay: BRAF HiBiT degradation assay, C-terminal HiBiT-tagged BRAF G466V overexpressed in HCT-116 BRAF−/− cells (clone 8), Nano-Glo HiBiT Lytic assay; conditions: BRAF G466V; for DC50: DC50 at 50%: fitted conc. at Y=50; for Dmax: HCT-116, percentage protein degraded at maximal compound effect relative to DMSO
T2 construct: Horizon Discovery (HCT-116 BRAF−/− cells); host or cells: HCT-116 BRAF−/− cells, clone 8, lentiviral transduction
T2 sequence (P15056 whole entry G466V): as the sequence (P15056 whole entry G469A) above, with G466V, A469G counted along it
Summary of the method: as §1

BRAF D594G = target: T3, BRAF D594G (Homo sapiens, UniProt P15056, D594G); assay: BRAF HiBiT degradation assay, C-terminal HiBiT-tagged BRAF D594G overexpressed in HCT-116 BRAF−/− cells (clone 63), Nano-Glo HiBiT Lytic assay; conditions: BRAF D594G; for DC50: DC50 at 50%: fitted conc. at Y=50; for Dmax: HCT-116, percentage protein degraded at maximal compound effect relative to DMSO
T3 construct: Horizon Discovery (HCT-116 BRAF−/− cells); host or cells: HCT-116 BRAF−/− cells, clone 63, lentiviral transduction
T3 sequence (P15056 whole entry D594G): as the sequence (P15056 whole entry G469A) above, with A469G, D594G counted along it
Summary of the method: as §1

BRAF V600E = target: T4, BRAF V600E (Homo sapiens, UniProt P15056, V600E); assay: BRAF HiBiT degradation assay, C-terminal HiBiT-tagged BRAF V600E A375 cells (clone 1F10), Nano-Glo HiBiT Lytic assay; conditions: A375 (BRAF V600E); for DC50: DC50 at 50%: fitted conc. at Y=50; for Dmax: A-375, percentage protein degraded at maximal compound effect relative to DMSO
T4 construct: endogenous C-terminal HiBiT fusion tag on BRAF V600E allele; endogenous in cells; host or cells: A375 clone 1F10 (CRISPR-Cas9 knock-in of the HiBiT tag; parental A375 from ATCC)
T4 sequence (P15056 whole entry V600E, the tested form may be a part): as the sequence (P15056 whole entry G469A) above, with A469G, V600E counted along it
Summary of the method: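 A375 cells with CRISPR knock-in C-terminal HiBiT on endogenous BRAF V600E (clone 1F10) were seeded and cultured 24 h at 37 °C, then dosed with an 11-point half-log series (1 μM to 0.01 nM, duplicate, 0.2% DMSO). Lytic HiBiT luminescence gave % protein remaining; DC50 was the fitted concentration at 50%.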

SMILES | DC50 (BRAF G469A) | Dmax (BRAF G469A) | DC50 (BRAF G466V) | Dmax (BRAF G466V) | DC50 (BRAF D594G) | Dmax (BRAF D594G) | DC50 (BRAF V600E) | Dmax (BRAF V600E)
CCN(C)S(=O)(=O)Nc1cccc(-c2nc(C)sc2-c2ccnc(Nc3ccc(N4CCN(CC5CCN(c6ccc([C@H]7CCC(=O)NC7=O)cn6)CC5)CC4)cn3)n2)c1F [Compound 27, (3R)-3-{6-[4-({4-[6-({4-[4-(3-{[ethyl(methyl)sulfamoyl]amino}-2-fluorophenyl)-2-methyl-1,3-thiazol-5-yl]pyrimidin-2-yl}amino)pyridin-3-yl]piperazin-1-yl}methyl)piperidin-1-yl]pyridin-3-yl}piperidine-2,6-dione] | 50 to 500 nM | 30 to 70% | 10 to 50 nM | > 70% | 10 to 50 nM | 30 to 70% | < 10 nM | > 70%
CCCS(=O)(=O)Nc1cccc(-c2nc(C(C)(C)C)sc2-c2ccnc(Nc3ccc(N4CCN(CC5CCN(c6ccc([C@@H]7CCC(=O)NC7=O)cc6)CC5)CC4)cc3)n2)c1F [Compound 58, N-[3-(2-tert-butyl-5-{2-[(4-{4-[(1-{4-[(3S)-2,6-dioxopiperidin-3-yl]phenyl}piperidin-4-yl)methyl]piperazin-1-yl}phenyl)amino]pyrimidin-4-yl}-1,3-thiazol-4-yl)-2-fluorophenyl]propane-1-sulfonamide] | > 500 nM | 30 to 70% | 50 to 500 nM | 30 to 70% | > 500 nM | 30 to 70% | 10 to 50 nM | > 70%
CCCS(=O)(=O)Nc1cccc(-c2nc(C(C)(C)C)sc2-c2ccnc(Nc3ccc(N4CCN(CC5CCN(c6ccc([C@H]7CCC(=O)NC7=O)cc6)CC5)CC4)cc3)n2)c1F [Compound 59, N-[3-(2-tert-butyl-5-{2-[(4-{4-[(1-{4-[(3R)-2,6-dioxopiperidin-3-yl]phenyl}piperidin-4-yl)methyl]piperazin-1-yl}phenyl)amino]pyrimidin-4-yl}-1,3-thiazol-4-yl)-2-fluorophenyl]propane-1-sulfonamide] | > 500 nM | 30 to 70% | < 10 nM | > 70% | 10 to 50 nM | 30 to 70% | 10 to 50 nM | > 70%
CCCS(=O)(=O)Nc1cccc(-c2nc(C(C)(C)C)sc2-c2ccnc(Nc3cnn(C4CCN(CC5CCN(c6ccc(C(=O)N[C@@H]7CCC(=O)NC7=O)nc6)CC5)CC4)c3)n2)c1F [Compound 67, 5-{4-[(4-{4-[(4-{2-tert-butyl-4-[2-fluoro-3-(propane-1-sulfonamido)phenyl]-1,3-thiazol-5-yl}pyrimidin-2-yl)amino]-1H-pyrazol-1-yl}piperidin-1-yl)methyl]piperidin-1-yl}-N-[(3R)-2,6-dioxopiperidin-3-yl]pyridine-2-carboxamide] | > 500 nM | < 30% | > 500 nM | < 30% | > 500 nM | 30 to 70% | < 10 nM | 30 to 70%
CCCS(=O)(=O)Nc1cccc(-c2nc(C(C)(C)C)sc2-c2ccnc(Nc3ccc(N4CCN(CC5CCN(c6ccc([C@H]7CCC(=O)NC7=O)cc6)CC5)CC4)c(F)c3)n2)c1F [Compound 87, N-[3-(2-tert-butyl-5-{2-[(4-{4-[(1-{4-[(3R)-2,6-dioxopiperidin-3-yl]phenyl}piperidin-4-yl)methyl]piperazin-1-yl}-3-fluorophenyl)amino]pyrimidin-4-yl}-1,3-thiazol-4-yl)-2-fluorophenyl]propane-1-sulfonamide] | > 500 nM | 30 to 70% | 10 to 50 nM | 30 to 70% | > 500 nM | 30 to 70% | 10 to 50 nM | > 70%
CCCS(=O)(=O)Nc1cccc(-c2nc(C(C)(C)C)sc2-c2ccnc(Nc3ccc(C4CCN(CC5CCN(c6ccc([C@H]7CCC(=O)NC7=O)cc6)CC5)CC4)cc3)n2)c1F [Compound 89, N-[3-(2-tert-butyl-5-{2-[(4-{1-[(1-{4-[(3R)-2,6-dioxopiperidin-3-yl]phenyl}piperidin-4-yl)methyl]piperidin-4-yl}phenyl)amino]pyrimidin-4-yl}-1,3-thiazol-4-yl)-2-fluorophenyl]propane-1-sulfonamide] | > 500 nM | 30 to 70% | > 500 nM | 30 to 70% | > 500 nM | 30 to 70% | 10 to 50 nM | > 70%
CCN(C)S(=O)(=O)Nc1cccc(-c2nc(C(C)(C)C)sc2-c2ccnc(Nc3ccc(N4CCN(CC5CCN(c6ccc([C@H]7CCC(=O)NC7=O)cc6)CC5)CC4)cn3)n2)c1F [Compound 128, (3R)-3-{4-[4-({4-[6-({4-[2-tert-butyl-4-(3-{[ethyl(methyl)sulfamoyl]amino}-2-fluorophenyl)-1,3-thiazol-5-yl]pyrimidin-2-yl}amino)pyridin-3-yl]piperazin-1-yl}methyl)piperidin-1-yl]phenyl}piperidine-2,6-dione] | > 500 nM | < 30% | 50 to 500 nM | 30 to 70% | > 500 nM | 30 to 70% | 50 to 500 nM | > 70%

The remaining lines, values ahead:

DC50 (BRAF G469A) | Dmax (BRAF G469A) | DC50 (BRAF G466V) | Dmax (BRAF G466V) | DC50 (BRAF D594G) | Dmax (BRAF D594G) | DC50 (BRAF V600E) | Dmax (BRAF V600E) | SMILES
10 to 50 nM | 30 to 70% | < 10 nM | > 70% | < 10 nM | 30 to 70% | 10 to 50 nM | > 70% | CCN(C)S(=O)(=O)Nc1cccc(-c2nc(C(C)(C)C)sc2-c2ccnc(Nc3ccc(N4CCN(CC5CCN(c6ccc([C@H]7CCC(=O)NC7=O)cn6)CC5)CC4)cn3)n2)c1F [Compound 29, (3R)-3-{6-[4-({4-[6-({4-[2-tert-butyl-4-(3-{[ethyl(methyl)sulfamoyl]amino}-2-fluorophenyl)-1,3-thiazol-5-yl]pyrimidin-2-yl}amino)pyridin-3-yl]piperazin-1-yl}methyl)piperidin-1-yl]pyridin-3-yl}piperidine-2,6-dione]
10 to 50 nM | 30 to 70% | 50 to 500 nM | 30 to 70% | 10 to 50 nM | 30 to 70% | < 10 nM | > 70% | CCN(C)S(=O)(=O)Nc1cccc(-c2nc(C)sc2-c2ccnc(Nc3ccc(N4CCN(CC5CCN(c6ccc([C@H]7CCC(=O)NC7=O)cc6)CC5)CC4)cn3)n2)c1F [Compound 41, (3R)-3-{4-[4-({4-[6-({4-[4-(3-{[ethyl(methyl)sulfamoyl]amino}-2-fluorophenyl)-2-methyl-1,3-thiazol-5-yl]pyrimidin-2-yl}amino)pyridin-3-yl]piperazin-1-yl}methyl)piperidin-1-yl]phenyl}piperidine-2,6-dione]
< 10 nM | 30 to 70% | > 500 nM | 30 to 70% | > 500 nM | 30 to 70% | < 10 nM | > 70% | CCCS(=O)(=O)Nc1cccc(-c2nc(C)sc2-c2ccnc(Nc3ccc(N4CCN(CC5CCN(c6ccc([C@@H]7CCC(=O)NC7=O)cc6)CC5)CC4)cn3)n2)c1F [Compound 61, N-[3-(5-{2-[(5-{4-[(1-{4-[(3S)-2,6-dioxopiperidin-3-yl]phenyl}piperidin-4-yl)methyl]piperazin-1-yl}pyridin-2-yl)amino]pyrimidin-4-yl}-2-methyl-1,3-thiazol-4-yl)-2-fluorophenyl]propane-1-sulfonamide]
10 to 50 nM | 30 to 70% | 10 to 50 nM | 30 to 70% | < 10 nM | 30 to 70% | 10 to 50 nM | > 70% | CCN(C)S(=O)(=O)Nc1cccc(-c2nc(C(C)(C)C)sc2-c2ccnc(Nc3ccc(N4CCN(CC5CCN(c6ccc([C@@H]7CCC(=O)NC7=O)cc6)CC5)CC4)cn3)n2)c1F [Compound 127, (3S)-3-{4-[4-({4-[6-({4-[2-tert-butyl-4-(3-{[ethyl(methyl)sulfamoyl]amino}-2-fluorophenyl)-1,3-thiazol-5-yl]pyrimidin-2-yl}amino)pyridin-3-yl]piperazin-1-yl}methyl)piperidin-1-yl]phenyl}piperidine-2,6-dione]
